Patent US20250108049A1, “COMPOUNDS FOR TREATING MDS-ASSOCIATED ANEMIAS AND OTHER CONDITIONS” (Agios Pharmaceuticals, Inc., priority 2021, published 2025)

Key:
NHD13 mice [1] = assay: Whole blood hematology in NHD13 mice (Example 5); assay type: in vivo, mouse; conditions: NHD13 mice aged 4 months, in chow, 20 weeks of treatment
Method: (§1) To determine the impacts of mitapivat and Compound 1 under these conditions, bone marrow aspirates from diseased mice were collected and populations of erythroblasts were evaluated at various stages of maturation using flow cytometry. Hemoglobin (Hb), red blood cell (RBC) counts, and reticulocyte fractions were also monitored every 4 weeks in whole blood on a Sysmex XN-1000™ hematology analyzer to determine if disease burden and impact on erythroblast maturation could be detected in the periphery. Pharmacodynamics and pharmacokinetic analysis were also performed to confirm appropriate exposure and target engagement of the compounds (data not shown).
(§2) A NUP98-HOXD13 (NHD13) transgenic MDS associated mouse model will also be used to assess the therapeutic benefit of disclosed compounds. See e.g., Lin et al., Blood 2005 Jul 1;106(1):287-95 and Suragani et al., Nat Med 2014 Apr;20(4):408-14. Male and female NHD13 mice aged to 4 or 10 months will be administered a disclosed compound in chow, ad libitum (e.g., mitapivat or Compound 1) daily. A full blood panel and erythroid precursor analysis will be conducted after 2 months of treatment, and results will be analyzed.
Using Example 4, 20 NHD13 mice (10 males and 10 females per group; RRID:IMSR_JAX:010505) aged 4 months were randomized into treatment groups using matched distribution of hemoglobin levels. Mice were dosed with either mitapivat or Compound 1 for 20 weeks in the same manner (in chow, ad libitum) as Example 3. After 20 weeks of treatment with either mitapivat or Compound 1, bone marrow aspirates of the NHD13 mice were collected as described above and analyzed by flow cytometry. […] In addition, a significant decline in survival of vehicle control NHD13 mice as previously reported (Lin et al., […] 2005 July;106(1)) was not observed. […] This mild state of disease was also supported in whole blood analysis. […] Data not shown.

Polg^D257A mice [2] = assay: Bone marrow aspirate flow cytometry of erythroblast populations in Polg^D257A mice (Example 3); assay type: in vivo, mouse; conditions: 10 mg/kg/day in chow, 8 months of treatment
Method: as §1
(§3) A second experiment was performed using the Polg^D257A model (RRID:IMSR_JAX:017341) from Example 2. In this experiment 20 mice (10 males and 10 females per group) were dosed with either mitapivat or Compound 1 in chow as described in Example 2. For the mitapivat group, the compound was dosed at 200 mg/kg/day and for the Compound 1 group, Compound 1 was dosed at 10 mg/kg/day. Treatment was started when the mice were 4 months of age and was continued for 8 months (rolling enrollment). Following 8 months of treatment (at 12 months of age), an evaluation of bone marrow aspirates was conducted by flow cytometry using well established markers of erythropoiesis following a modified procedure outlined in Suragani et al., Nat Med 2014 Apr; 20(4):408-14. Bone marrow aspirates were treated with ACK lysis buffer for 3 minutes to remove red blood cells from the sample. Remaining cells were washed and maintained in PBS+5% FBS throughout the remainder of the procedure. The flow cytometry panel included live/dead (Indol), B220 (BV421), CD5 (BV421), CD71 (AF700), and Terl19 (PE) antibodies. The gating strategy used for analysis was as follows: Live/B220-CD5-/Terl19+. Ter119+cells were then gated into populations using CD71 and FSC as outlined in the literature (Suragani et al., Nat Med 2014 Apr; 20(4):408-14; FIG. 6E). […] FIG. 6D. Flow cytometry data on the mitapivat treated Polg^D257A mice is not available as the mitapivat treatment arm is not yet completed.

NHD13 mice [3] = assay: Bone marrow aspirate flow cytometry of erythroblast populations in NHD13 mice (Example 5); assay type: in vivo, mouse; conditions: NHD13 mice aged 4 months, in chow, 20 weeks of treatment; mild disease in model
Method: as §1
as §2, with “Male and female NHD13 mice aged to 4 or 10 months will be administered a disclosed compound in chow, ad libitum (e.g., mitapivat or Compound 1) daily.” left out
Using Example 4, 20 NHD13 mice (10 males and 10 females per group; RRID:IMSR_JAX:010505) aged 4 months were randomized into treatment groups using matched distribution of hemoglobin levels. […] After 20 weeks of treatment with either mitapivat or Compound 1, bone marrow aspirates of the NHD13 mice were collected as described above and analyzed by flow cytometry. […]

Polg^D257A mice [4] = assay: Whole blood Hb, RBC and reticulocyte analysis in Polg^D257A mice, second experiment (Example 3); assay type: in vivo, mouse
Method: as §1, §3
Data not shown. After 24 weeks (6 months thus far) of treatment, mitapivat increased Hb and RBC counts by 7% in Polg^D257A mice, with no change in reticulocytes. Data not shown. After 32 weeks of treatment with Compound 1 no change in Hb, RBC count, or reticulocyte fraction was observed. Data not shown.

Polg^D257A mice [5] = assay: Mitapivat in Polg^D257A MDS-associated anemia mouse model, whole blood hematology (Example 2); assay type: in vivo; conditions: 200 mg/kg/day in chow
Method: as §1
Mitochondrial disruption has been linked to the development of anemia in MDS patients (see, e.g., Chen et al. Blood. 2009; 114(19):4045-53). Mitochondria play a key role in regulation of apoptosis, which is a mechanism highlighted in defunct hematopoiesis of MDS (Green et al., Science 1998; 281(5381):1309-1312, Kerbauy et al., Exp Hematol. 2007; 35(11): 1739-1746; Ahlqvist et al. Nature Communications. 2015; 6:6494). B6.12957(Cg)-Polg^tm1prol/J, or Polg^D257A, is a mouse model with a mutation in the N-terminus of the DNA polymerase γ gene that results in impaired proofreading activity in the mitochondria, leading to increased mtDNA mutagenesis (Jackson Laboratory #017341). See, Chen et al. Blood. 2009; 114(19):4045-53 and Ahlqvist et al. Nature Communications. 2015; 6:6494. […] Here, we used the Polg^D257A mouse model to evaluate the therapeutic benefit of a PK activator, mitapivat, in this mechanism of anemia.
Male and female Polg^D257A mice were administered 200 mg/kg/day mitapivat in chow, ad libitum, for 18 weeks starting at 7.5 months of age, once anemic phenotype was established by hematology analysis. Whole blood was collected via tail vein into EDTA tubes and analyzed using a Sysmex XN-2000™ hematology system according to manufacturer protocol. Hemoglobin, red blood cells (RBCs), and reticulocytes were monitored every 2-4 weeks to track disease progression and severity. After 18 weeks of mitapivat treatment, RBC counts were elevated by 45% and hemoglobin levels were increased by 2.4 g/dL in mitapivat treated mice compared to untreated mutants.
See FIGS. 1A-D and FIGS. 2A-D (C57BL/6J mice were used as controls). […] Commensurate with increased hemoglobin was a marked decrease (about 30%) in reticulocyte count.

[6] = 10 mg/kg/day in chow, after 32 weeks of treatment
[7] = 200 mg/kg/day in chow, after 24 weeks of treatment
[8] = male and female Polg^D257A mice, after 18 weeks

Cn1c2nc(Cc3cc[nH]n3)sc2c2cnn(Cc3cccc(N)n3)c(=O)c21 [Compound 1, 2-((1H-pyrazol-3-yl)methyl)-6-((6-aminopyridin-2-yl)methyl)-4-methyl-4H-thiazolo[5′,4′:4,5]pyrrolo[2,3-d]pyridazin-5(6H)-one]
reduction in reticulocyte count (NHD13 mice [1]): 25%
reduction in reticulocyte fraction (FIG. 8C) (NHD13 mice [1]): 20%
response in Hb compared to vehicle controls (FIG. 8A) (NHD13 mice [1]): minimal response
response in RBC count compared to vehicle controls (FIG. 8B) (NHD13 mice [1]): minimal response
late basophilic and polychromatic erythroblasts (EryB) in bone marrow (Polg^D257A mice [2]): increase
orthochromatic and reticulocytes (EryC) in bone marrow (Polg^D257A mice [2]): increase
ProE (proerythrocyte) population in bone marrow (Polg^D257A mice [2]; compared to vehicle control Polg^D257A mice): no additional impact
basophilic erythroblasts (EryA) in bone marrow (Polg^D257A mice [2]; vs vehicle control Polg^D257A mice): reduction
therapeutic benefit in bone marrow flow cytometry data (erythroblast populations) (NHD13 mice [3]): difficult to detect any therapeutic benefit
change in Hb (Polg^D257A mice [4]; [6]): no change
change in RBC count (Polg^D257A mice [4]; [6]): no change
change in reticulocyte fraction (Polg^D257A mice [4]; [6]): no change

O=C(c1ccc(NS(=O)(=O)c2cccc3cccnc23)cc1)N1CCN(CC2CC2)CC1 [mitapivat, N-(4-(4-(cyclopropylmethyl)piperazine-1-carbonyl)phenyl)quinoline-8-sulfonamide]
reduction in reticulocyte count (NHD13 mice [1]): 15%
reduction in reticulocyte fraction (FIG. 8C) (NHD13 mice [1]): 20%
response in Hb compared to vehicle controls (FIG. 8A) (NHD13 mice [1]): minimal response
response in RBC count compared to vehicle controls (FIG. 8B) (NHD13 mice [1]): minimal response
therapeutic benefit in bone marrow flow cytometry data (erythroblast populations) (NHD13 mice [3]): difficult to detect any therapeutic benefit
Hb increased (Polg^D257A mice [4]; [7]): 7%
RBC counts increased (Polg^D257A mice [4]; [7]): 7%
change in reticulocytes (Polg^D257A mice [4]; [7]): no change
decrease in reticulocyte count (FIG. 2C) (Polg^D257A mice [5]; Polg^D257A mice): about 30%
frequency of reticulocytes decreased (Polg^D257A mice [5]; Polg^D257A mice, after 18 weeks): 30%
therapeutic benefit (hemoglobin), female mutators (Polg^D257A mice [5]; female Polg^D257A mice, after 18 weeks): responded after 18 weeks
increase in hemoglobin, male mutators (Polg^D257A mice [5]; male Polg^D257A mice, starting at 6-weeks post-treatment): 1 to 2 g/dL
RBC counts elevated compared to untreated mutants (Polg^D257A mice [5]; [8]): 45%
hemoglobin levels increased compared to untreated mutants (Polg^D257A mice [5]; [8]): 2.4 g/dL
